Values of other authors, collected in paper PMC3604136 (Nature chemical biology, 2013).

Tested on: HIF-1 and HIF-2

acriflavine
HIF isoform inhibition: inhibits both HIF-1 and HIF-2
